Experimental data published in patent publication US6667340B1, “Inhibitors of phosphatidyl myo-inositol cycle” (Arizona Board of Regents on behalf of the University of …, priority 1998, dated 2003).
Values joined by “and” are separate entries in the source; they are usually repeats but may differ in a detail not shown here. Equal values may be shown once. “Also recorded” adds a separate entry of the source. Read-outs that look alike come from different tables or passages of the source.

Legend:
HT-29 colon cancer cells [1] = test: HT-29 colony formation in soft agarose; format: cell-based, human; details: for IC50: HT-29 colonies in soft agarose, 7 days exposure, mean of 3 determinations ± S.E.
Experimental: Specifically, anti-tumor activity was assessed by growing HT-29 colon cancer cells colonies in soft agarose which were then exposed to compounds according to the invention for 7 days and the colonies then counted.

bovine PI-PLC = test: In vitro inhibition of bovine PI-PLC; format: biochemical
PI-3kinase = details: previously found; cited from earlier work
[2] = Preliminary toxicology in BALB/C mice; format: in vivo, male BALB/C mice; details: for Weight Change %: killed 24 hr after last dose
Experimental: In order to evaluate clinical safety, toxicity tests were conducted by administering DPI or OMDPI to groups of 4 male BALB/C mice daily by i.p. injection for 5 days at the maximum tolerated dose. […] Moreover, there was a 33% decrease in total white blood cell count. It should be noted, however, that this is not sufficient for a cytotoxic drug to be considered myelosuppresive.
As discussed, Table 4 contains the toxicity results obtained with groups of 4 male BALB/C mice, which were administered the compounds daily by i.p. injection for 5 days at the doses shown and killed 24 hr after the last dose. Values are mean±S.E. The p values are shown only where there was a significant difference to control.

[3] = tested on: MCF-7 human breast cancer xenografts; test: in vivo; format: in vivo; details: for T/C: p<0.05
Text: (§1) Also, the relative ability of D-3-deoxy-PtdIns and OMDPI, when administered i.p. as a daily micellar suspension to inhibit the growth of MCF-7 human breast cancer xenografts in SCID mice, was further evaluated. […] […]. These were the maximum tolerated doses that could be given by these schedules. […].

HT-29 colon cancer cells [4] = details: as reported earlier (J. Med. Chem. 1995; U.S. Pat. No. 5,227,508); read-out: IC50 for inhibition of colony formation by HT-29 human colon carcinoma cells; cited from earlier work
human Akt = human Akt (Homo sapiens, UniProt P31749); test: Inhibition of PDGF-stimulated Akt activation in transfected NIH 3T3 cells; format: cell-based; details: 6 hours exposure, listed as D-3-deoxy-PtdIns
HT-29 human colon cancer = test: Anti-tumor activity against established HT-29 human colon cancer in SCID mice; details: for T/C % / Tumor volume on day 10: qd 4-7; for Tumor volume on day 10: mean of 8 mice with S.E.
[5] = target: T1, bovine brain p110/p85 PI-3-kinase (Bos taurus, UniProt P32871); test: In vitro inhibition of bovine brain p110/p85 PI-3-kinase; format: biochemical
T1 construct: from tissue; host or cells: bovine brain
Text: Schultz et al.; Anticancer Res., 15:1135-1140 (1995)).

Aqueous solubility = format: physicochemical; details: aqueous with cosolvent or surfactant or cyclodextrin; in 0.1% Tween 20, opalescent solution
Text: Therefore, OMDPI should be readily formulated for intravenous use, should this be determined to be the optimal route for clinical administration.

in vivo = format: in vivo; details: SCID, mouse, in vivo, ip, read-out: maximum tolerated dose
Text: as §1

[6] = administered orally as well as parenterally; cited from earlier work
[7] = 300 mg/kg i.p. daily for 5 days
[8] = 100 mg/kg i.p. daily for 5 days
[9] = 100 mg/kg i.p. daily for 5 days, listed as OMDPI
[10] = 100 mg/kg i.p. daily for 5 days, listed as deoxy-PtdIns Ether Lipid
[11] = maximum tolerated dose i.p. daily for 5 days

human Akt, sequence (P31749 whole entry): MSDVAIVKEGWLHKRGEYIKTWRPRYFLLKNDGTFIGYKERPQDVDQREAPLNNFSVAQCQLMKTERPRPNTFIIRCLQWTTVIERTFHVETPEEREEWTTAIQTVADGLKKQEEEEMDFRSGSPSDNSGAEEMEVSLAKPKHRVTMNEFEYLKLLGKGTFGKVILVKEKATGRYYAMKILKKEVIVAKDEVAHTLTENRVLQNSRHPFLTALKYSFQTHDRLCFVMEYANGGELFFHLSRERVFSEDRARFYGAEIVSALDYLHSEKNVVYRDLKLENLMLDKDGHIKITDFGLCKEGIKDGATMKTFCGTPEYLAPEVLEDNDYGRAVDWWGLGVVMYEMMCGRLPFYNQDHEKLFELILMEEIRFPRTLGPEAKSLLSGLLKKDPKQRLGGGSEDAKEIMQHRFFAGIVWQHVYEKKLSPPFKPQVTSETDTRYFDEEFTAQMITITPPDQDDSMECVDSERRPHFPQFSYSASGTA
T1 sequence (P32871 whole entry): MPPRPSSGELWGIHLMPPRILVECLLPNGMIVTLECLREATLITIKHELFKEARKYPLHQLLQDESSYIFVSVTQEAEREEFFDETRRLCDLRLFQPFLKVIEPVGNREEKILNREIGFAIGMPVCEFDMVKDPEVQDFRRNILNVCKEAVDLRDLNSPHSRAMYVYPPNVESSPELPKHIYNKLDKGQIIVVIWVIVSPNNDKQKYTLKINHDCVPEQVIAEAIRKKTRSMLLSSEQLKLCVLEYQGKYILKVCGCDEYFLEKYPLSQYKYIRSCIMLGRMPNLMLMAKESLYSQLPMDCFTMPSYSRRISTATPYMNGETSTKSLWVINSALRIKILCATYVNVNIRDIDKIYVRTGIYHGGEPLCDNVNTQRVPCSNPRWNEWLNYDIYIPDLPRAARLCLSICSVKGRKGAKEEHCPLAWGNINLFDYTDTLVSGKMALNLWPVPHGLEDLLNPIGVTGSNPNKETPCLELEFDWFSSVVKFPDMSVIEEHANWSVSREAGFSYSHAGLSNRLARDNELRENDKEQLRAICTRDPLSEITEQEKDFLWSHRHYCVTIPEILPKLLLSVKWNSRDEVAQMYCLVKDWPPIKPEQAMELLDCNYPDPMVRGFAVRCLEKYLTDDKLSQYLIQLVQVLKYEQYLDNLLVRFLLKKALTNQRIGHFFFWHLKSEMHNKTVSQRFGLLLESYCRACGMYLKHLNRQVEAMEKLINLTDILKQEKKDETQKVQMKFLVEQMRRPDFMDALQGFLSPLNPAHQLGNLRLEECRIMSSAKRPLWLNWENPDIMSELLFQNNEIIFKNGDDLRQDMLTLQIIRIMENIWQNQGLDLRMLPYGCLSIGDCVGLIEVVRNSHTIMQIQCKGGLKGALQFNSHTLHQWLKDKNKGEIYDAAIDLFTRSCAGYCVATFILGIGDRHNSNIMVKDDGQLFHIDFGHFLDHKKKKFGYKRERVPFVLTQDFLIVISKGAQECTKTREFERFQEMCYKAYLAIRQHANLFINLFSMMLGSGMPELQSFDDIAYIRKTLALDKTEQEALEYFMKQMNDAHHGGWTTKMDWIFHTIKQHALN
T1 sequence (P23727 whole entry partner): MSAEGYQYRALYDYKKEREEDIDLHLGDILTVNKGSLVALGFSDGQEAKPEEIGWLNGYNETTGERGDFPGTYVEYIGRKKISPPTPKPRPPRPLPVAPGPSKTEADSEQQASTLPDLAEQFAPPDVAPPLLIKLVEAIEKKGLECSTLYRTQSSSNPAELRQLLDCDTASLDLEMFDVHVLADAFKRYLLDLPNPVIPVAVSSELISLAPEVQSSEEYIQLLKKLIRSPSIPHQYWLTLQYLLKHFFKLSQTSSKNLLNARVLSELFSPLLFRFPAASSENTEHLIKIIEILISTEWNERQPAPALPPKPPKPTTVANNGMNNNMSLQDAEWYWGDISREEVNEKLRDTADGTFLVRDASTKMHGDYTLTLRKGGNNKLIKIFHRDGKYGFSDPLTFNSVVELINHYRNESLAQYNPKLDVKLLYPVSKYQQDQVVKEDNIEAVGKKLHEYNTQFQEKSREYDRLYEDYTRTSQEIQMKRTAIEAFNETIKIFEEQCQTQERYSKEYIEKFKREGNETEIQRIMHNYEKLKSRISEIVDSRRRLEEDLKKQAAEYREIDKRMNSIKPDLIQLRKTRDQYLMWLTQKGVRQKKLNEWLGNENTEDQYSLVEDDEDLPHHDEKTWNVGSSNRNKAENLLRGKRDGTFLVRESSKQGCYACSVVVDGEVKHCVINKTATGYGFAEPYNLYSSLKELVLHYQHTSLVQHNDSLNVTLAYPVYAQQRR

2,3-dideoxy-PtdIns
IC50 (HT-29 colon cancer cells [1]): 50 ± 7 µM

3-chloro-3-deoxy-PtdIns [reference compound]
growth inhibition at maximum tested concentration (HT-29 colon cancer cells [1]; HT-29 colony formation): < 20%

CCCCCCCCCCCCCCCCCCOC[C@H](COP(=O)(O)OC1C(O)C(O)C(O)C(O)C1O)OC (some centres unmarked) [1-O-octadecyl-2-O-methyl-sn-glycero-3-phospho-myo-inositol]
PI-PLC IC50 (bovine PI-PLC; same assay conditions as Table 2): poor inhibitor
IC50 (PI-3kinase): 90 µM
inhibition of cancer cell growth (HT-29 colon cancer cells [1]; in words): only a weak inhibitor

CCCCCCCCCCCCCCCC(=O)OCC(COP(=O)(O)OC1C(O)CC(O)C(O)C1O)OC(=O)CCCCCCCCCCCCCCC (centres unmarked) [(30), 3-deoxy-phosphatidyl-myo-inositol, reference compound]
ALT [2, 7]: 30.5
BUN [2, 7]: 15.7
Platelets × 10^6 [2, 7]: 0.9 × 10^6
Total Protein [2, 7]: 4.6
White blood cells [2, 7]: 7.9
Weight Change % [2, 7]: −4.3 ± 1.9%
T/C ([3]; i.p. daily micellar suspension, dose not given): 62%
PtdIns-PLC IC50 (bovine PI-PLC): N/A (N/A = not active, with <20% inhibition at 100 gM.)
IC50 (HT-29 colon cancer cells [4]): 35 µM
Akt activation (human Akt): blocks the activation of Akt; also recorded: blocked Akt activation
T/C % (HT-29 human colon cancer; 250 mg/kg i.p.): 111.1%
Tumor volume on day 10 (HT-29 human colon cancer; 250 mg/kg i.p.): 0.30 ± 0.06 cm^3
lethality (HT-29 human colon cancer; 500 mg/kg i.p., qd 4-5): lethal
anti-tumor activity (HT-29 human colon cancer; half of 500 mg/kg daily i.p.): no anti-tumor activity
IC50 (HT-29 colon cancer cells [1]): 35 µM

CCCCCCCCCCCCCCCC(=O)OCC(COP(=O)(O)OC1C(O)C(O)C(O)C(F)C1O)OC(=O)CCCCCCCCCCCCCCC (centres unmarked) [(35), 3-Fluoro-3-deoxy-PtdIns, reference compound]
IC50 (HT-29 colon cancer cells [4]): 37 µM
IC50 (HT-29 colon cancer cells [1]): 37 µM

CCCCCCCCCCCCCCCC(=O)OCC(CCP(=O)(O)OC1C(O)CC(O)C(O)C1O)OC(=O)CCCCCCCCCCCCCCC [(50), 1-O-[(3S)-3,4-bis(palmitoyloxy)butylphosphonyl]-1D-3-deoxy-myo-inositol]
PI-3-K IC50 [5]: N/A (N/A = not active, with <20% inhibition at 100 gM.)
PtdIns-PLC IC50 (bovine PI-PLC): N/A (N/A = not active, with <20% inhibition at 100 gM.)
fold increase in growth inhibitory activity compared to DPI (HT-29 colon cancer cells [1]; HT-29 colony formation, versus (30)): > 3 fold and ~3 fold
IC50 (HT-29 colon cancer cells [1]; Homo sapiens, 168 h): 10 µM

CCCCCCCCCCCCCCCCCCOCC(COP(=O)(O)OC1C(O)CC(O)C(O)C1O)OC (centres unmarked) [(60), 1-O-(2-O-methyl-1-O-octadecyl-sn-glycero-3-phospho)-1D-3-deoxy-myo-inositol]
solubility (Aqueous solubility): ≥ 10000 µg/mL
ALT [2, 8]: 32.7
BUN [2, 8]: 18.7
Total Protein [2, 8]: 4.9
White blood cells [2, 8]: 5.8
Weight Change % [2, 9]: no effect
Weight Change % [2, 10]: +2.3 ± 1.5%
Platelets × 10^6 [2, 9]: no effect
Platelets × 10^6 [2, 10]: 0.9 × 10^6
liver, renal toxicity ([2]; in words): not liver or renal toxic
myelosuppression ([2]; in words): only weakly myelosuppresive
decrease in total white blood cell count [2, 11]: 33%
serum liver or kidney enzymes [2, 11]: did not result in elevation
MTD at 5 days (in vivo; daily i.p. for 5 days): 100 mg/kg
MTD at 10 days (in vivo; daily i.p. for 10 days): 75 mg/kg
T/C ([3]; 75 mg/kg i.p. for 10 days): 20%
T/C ([3]; 100 mg/kg i.p. for 5 days): 39%
inhibition of the growth of MCF-7 breast cancer ([3]; 4 or 5 day daily i.p. schedule): 60%
inhibition of the growth of MCF-7 breast cancer xenografts ([3]; 10 day schedule): 80%
T/C % (HT-29 human colon cancer; 50 mg/kg i.p.): 103.7%
Tumor volume on day 10 (HT-29 human colon cancer; 50 mg/kg i.p.): 0.258 ± 0.05 cm^3
T/C % (HT-29 human colon cancer; 100 mg/kg i.p.): 118.0%
Tumor volume on day 10 (HT-29 human colon cancer; 100 mg/kg i.p.): 0.32 ± 0.09 cm^3
T/C % (HT-29 human colon cancer; 150 mg/kg i.p.): 33.3%
Tumor volume on day 10 (HT-29 human colon cancer; 150 mg/kg i.p.): 0.09 ± 0.07 cm^3
toxicity at the highest dose tested (HT-29 human colon cancer; 150 mg/kg per day i.p.): not toxic
inhibition of tumor growth (HT-29 human colon cancer; 150 mg/kg per day, 4 daily i.p. injections): 67%
anti-tumor activity (HT-29 human colon cancer; 100 and 50 mg/kg per day i.p.): did not elicit anti-tumor activity
IC50 (HT-29 colon cancer cells [1]; listed as OMDPI (60)): 2.1 ± 0.1 µM
IC50 (HT-29 colon cancer cells [1]; Homo sapiens, HT-29, 168 h): 2 µM

CCCCCCCCCCCCCCCCCCOCC(CCP(=O)(O)OC1C(O)CC(O)C(O)C1O)OC [(90), 1-O-[(3S)-methoxy-4-(octadecyloxy)butylphosphonyl]-1D-3-deoxy-myo-inositol]
IC50 (HT-29 colon cancer cells [1]; Homo sapiens, 168 h): 45 µM

O=P1(N(CCCl)CCCl)NCCCO1 (centres unmarked) [cyclophosphamide, reference compound]
inhibition of the growth of MCF-7 xenografts ([3]; 265 mg/kg on day 5, positive control): 43%

CCCCCCCCCCCCCCCCOP(=O)([O-])OCC[N+](C)(C)C [mitelfosine, hexadecylphosphocholine]
clinical anti-tumor activity [6]: have shown clinical anti-tumor activity
